In PubChem BioAssay (NCI) one finds TGI data, which are given here for 9 molecules.

Holding throughout (assay): DTP human tumour cell line panel, 48 h
Assay [1] concerns HCT-116 colon.
The test system of assay [2] is HOP-62 NSCLC.
Assay [3] has as its system NCI-H23 lung.
The subject of assay [4] is SR leukemia.
Assay [5] relates to SF-295 CNS.
Assay [6] relates to SNB-19 CNS.
The test system of assay [7] is NCI-H226 lung.
The test system of assay [8] is HT29 colon.
Assay [9] concerns KM12 colon.
Assay [10] concerns SF-268 CNS.
Assay [11] has as its system UACC-257 melanoma.
Assay [12] deals with A498 renal.
In assay [13] the test system is U251 CNS.
Assay [14] has as its system HL-60(TB) leukemia.
For assay [15], the system named is M14 melanoma.
Assay [16] relates to IGROV1 ovarian.
For assay [17], the system named is SK-MEL-5 melanoma.
The test system of assay [18] is NCI-H460 lung.
Assay [19] relates to BT-549 breast.

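Interpolation was linear, between the two tested concentrations surrounding the appropriate level; five concentrations were tested over 48 hours in 96-well plates. TGI: concentration producing complete growth inhibition.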

As to `COc1cc2c(c(OC)c1OC)C(=O)[C@H]1OC(=O)N[C@@H]21`, the TGI in assay [1], in assay [2], in assay [3], in assay [4], in [5] and in assay [6] was > 100 µM each time. Further, the TGI in assay [7], in assay [8], in [9], in assay [10], in assay [11] and in assay [12] was > 100 µM throughout. The TGI in [13], in assay [14] and in [15] was > 100 µM throughout.

For the molecule `Cn1c(=O)nc2n(-c3ccc(Cl)cc3Cl)c3ccccc3nc-2c1=O`, the TGI in [1] is 5.19 µM; in assay [2] it was 23.9 µM; in assay [3], 22 µM; in assay [4], > 100 µM; in assay [5] it was 10.6 µM; in [6] it was 26.5 µM. In addition, the TGI was found to be 27 µM in assay [16]; 10.3 µM in assay [8]; 15.8 µM in [9]; 3.36 µM in [17]; 76 µM in [10]; 19 µM in [13]. Further, the TGI in [14] is 27.8 µM; in assay [15], 4.58 µM.

Turning to `COC1CC(n2cnc3c(N)ncnc32)OC1CO` (stereo not given), the TGI in [1], in assay [2], in [3], in assay [18], in assay [4] and in assay [5] was > 100 µM throughout. Moreover, the TGI in assay [6], in [16], in [7], in [8], in assay [9] and in [17] was > 100 µM in each case. For the same molecule, the TGI in assay [10], in assay [11], in assay [13], in assay [14] and in assay [15] was > 100 µM throughout.

For the molecule `CC(=O)c1cccc(NCn2nnc3ccccc32)c1`, the total growth inhibition concentration (TGI) in assay [1], in assay [2], in assay [3], in assay [18], in [4] and in assay [5] was > 100 µM throughout. Besides, the total growth inhibition concentration (TGI) in assay [6], in [16], in assay [7], in [8], in [9] and in [10] was > 100 µM throughout. Moreover, the TGI in [11], in assay [12], in assay [13], in [14] and in assay [15] was > 100 µM in each case.

`O=C(Nc1ccc([N+](=O)[O-])cc1)C(=O)C(C(=O)c1ccccc1F)C1OC(=O)c2ccccc21` (stereo not given): the TGI in [1] is > 100 µM; in assay [2] it was > 100 µM; in assay [3], > 100 µM; in assay [18] it was > 100 µM; in [4], 64.7 µM; in [5] it was > 100 µM. The TGI in assay [6] is > 100 µM; in assay [16] it was > 100 µM; in [7] it was 59.8 µM; in assay [8], > 100 µM; in assay [9] it was > 100 µM; in [17], > 100 µM. The TGI was > 100 µM in [10]; > 100 µM in assay [11]; > 100 µM in assay [12]; 39.9 µM in assay [13]; 66.1 µM in assay [14]; > 100 µM in assay [15].

On to `OC(c1ccccc1)(c1ccccc1)c1cccnc1`, for which the TGI in assay [1], in [2], in [3], in assay [18], in assay [5] and in assay [6] was > 100 µM throughout. The TGI in [16], in assay [7], in assay [8], in assay [9], in [17] and in [10] was > 100 µM in each case. Moreover, the TGI in [11], in [12], in assay [13] and in assay [15] was > 100 µM in each case.

In the case of `CC(C)=CCC/C(C)=C/Cc1c(O)ccc2c1[nH]c1cc(O)c(C)cc12`, the TGI in assay [1] is > 25 µM; in assay [2] it was 23.4 µM; in [18], > 25 µM; in assay [4], > 25 µM; in [6], > 25 µM; in assay [16], > 25 µM. Besides, the TGI in [7], in assay [8], in [9], in [17], in assay [10] and in assay [13] was > 25 µM in each case. In addition, the TGI in [14] and in assay [15] was > 25 µM each time.

In the case of `Cc1ccc(-n2cnc3c(N/N=C4\SCC(=O)N4c4ccccc4)ncnc32)cc1`, the TGI in assay [1] came to 13 µM; in assay [2] it was 28.9 µM; in [3], 14 µM; in assay [18] it was 13.2 µM; in assay [5] it was 27.6 µM; in assay [6], 24.4 µM. Moreover, the TGI in assay [16] is 15 µM; in assay [7] it was 20.4 µM; in [8], 15 µM; in assay [9], 7.88 µM; in assay [19], 14.1 µM; in assay [17], 16 µM. Besides, the TGI in [10] worked out at 19.7 µM; in assay [11] it was 18.3 µM; in assay [12], 27.2 µM; in [13], 16.2 µM; in assay [14] it was 4.29 µM; in assay [15], 13.4 µM.

`C=CC12CN(C)C3C4COC(CC41)C1(C(=O)Nc4ccccc41)C32` (stereo not given): the TGI in assay [1], in [2], in [3], in [18], in assay [5] and in [6] was > 200 µM in each case. Also, the TGI in assay [16], in [7], in assay [8], in assay [9], in assay [17] and in assay [10] was > 200 µM in each case. Besides, the TGI is > 200 µM in assay [11], > 200 µM in assay [12], > 200 µM in assay [13] and > 186 µM in assay [14].

In general, TGI refers to the concentration at which net growth stops. The low end stands for greater sensitivity of the cells, the high end for lower sensitivity of the cells.
